The record followed here is patent US20160244390A1, “Etherified Tri-Butylphenol Alkoxylates, Process For Their Preparation And Their Use In Crop Protection Agents” (CLARIANT INTERNATIONAL LTD, priority 2013, published 2016).

Data set [1] in a line: Dynamic surface tension by the bubble pressure method (wetting agent effect). It is filed as physicochemical. To be noted: for Dynamic surface tension: 22° C. On the procedure:
The dynamic surface tension was determined by the bubble pressure method (BP2100 tensiometer, Krúss) on a timescale relevant for spray application. The dynamic surface tension was measured for solutions of TBPEM-6 and TBPEM-8 in mains water at room temperature (22° C.) and at the typical spray mixture concentrations of 0.3, 1, and 3 g/l.

The subject of the next data set is apple cuticles. Put plainly: Percentage penetration of benzyladenine through apple cuticles with and without TBPEM-6. To be noted: 0.2 g/l benzyladenine in acetone/mains water, no additive. It counts as in vitro ADME. On the procedure: The method described in the literature (Baur et al., 1997, Pesticide Science 51, 131-152) can be used for determining these properties.
The penetration of the growth promoter benzyladenine (benzylamonopurin) through leaf cuticles was measured at an active ingredient concentration of 0.2 g/l benzyladenine in acetone/mains water, with and without TBPEM-6, at different practically relevant concentrations, 5 hours and 24 hours after application.

As for “2,4,6-tributylphenoxy-ethoxy(6) methyl ether [TBPEM-6]”, the Dynamic surface tension came to 70.3 mN/m in data set [1] (0.3 g/L in mains water, 20 ms); 65.0 mN/m in data set [1] (0.3 g/L in mains water, 100 ms); 62.8 mN/m in data set [1] (0.3 g/L in mains water, 200 ms); 62.9 mN/m in data set [1] (1 g/L in mains water, 20 ms); 54.1 mN/m in data set [1] (1 g/L in mains water, 100 ms); 52.5 mN/m in data set [1] (1 g/L in mains water, 200 ms). Also, the Dynamic surface tension in data set [1] (3 g/L in mains water, 20 ms) is listed as 55.5 mN/m; in data set [1] (3 g/L in mains water, 100 ms), 42.9 mN/m; in data set [1] (3 g/L in mains water, 200 ms) it was 41.8 mN/m. For the same compound, the “Suitability as wetting agent from dynamic surface tension” value in data set [1] (spray application timescale) is reported as “excellent suitability as a rapid wetting agent”.
`c1ccc(CNc2ncnc3nc[nH]c23)cc1` [Benzyladenine, benzyladenine]: the “Percentage penetration of benzyladenine” value is 2.0% in the data set on apple cuticles (5 h) and 3.7% in the data set on apple cuticles (24 h).
“tributylphenol ethoxylate(6) [Sapogenat T 060]”: the Dynamic surface tension in data set [1] (0.3 g/L in mains water, 20 ms) is listed as 69.9 mN/m; in data set [1] (0.3 g/L in mains water, 100 ms), 64.6 mN/m; in data set [1] (0.3 g/L in mains water, 200 ms) it was 61.4 mN/m; in data set [1] (1 g/L in mains water, 20 ms), 67.3 mN/m; in data set [1] (1 g/L in mains water, 100 ms) it was 58.6 mN/m; in data set [1] (1 g/L in mains water, 200 ms) it was 53.2 mN/m. Moreover, the Dynamic surface tension in data set [1] (3 g/L in mains water, 20 ms) came to 63.4 mN/m; in data set [1] (3 g/L in mains water, 100 ms), 51.8 mN/m; in data set [1] (3 g/L in mains water, 200 ms), 46 mN/m.
